ChEMBL document CHEMBL5108067, “Discovery of Potent OTUB1/USP8 Dual Inhibitors Targeting Proteostasis in Non-Small-Cell Lung Cancer” (J Med Chem, 2022)
Active and inactive are the calls of the source. The calls are words filed in the database; no cut-off is given here.

Legend:
[1] = Half life in ICR mouse at 1 mg/kg, iv measured upto 1440 mins by LC-MS/MS analysis; format: ADME, organism-based; settings: in vivo, 24 h
[2] = molecular target: T1, Ubiquitin thioesterase OTUB1 (Homo sapiens, UniProt Q96FW1); assay: Inhibition of N-terminal His-6 tagged OTUB1 (40 to 271 residues) (unknown origin) expressed in Escherichia coli BL21 (DE3) cells at […] using Ub-Rho measured after 0.5 to 3 hrs by fluorescence based Plate reader method relative to control; settings: dose 2.5 µM, time 0.5-3 hrs
T1 sequence (Q96FW1 whole entry, the tested form may be a part): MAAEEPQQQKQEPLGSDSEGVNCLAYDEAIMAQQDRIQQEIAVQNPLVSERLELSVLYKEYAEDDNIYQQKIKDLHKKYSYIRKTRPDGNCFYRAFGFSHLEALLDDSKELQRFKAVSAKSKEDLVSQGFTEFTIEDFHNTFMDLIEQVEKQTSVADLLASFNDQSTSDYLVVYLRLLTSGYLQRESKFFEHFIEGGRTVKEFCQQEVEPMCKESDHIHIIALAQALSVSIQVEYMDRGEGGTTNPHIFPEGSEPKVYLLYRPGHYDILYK

[3] = system: Mus musculus; assay: In vivo inhibition of USP8 in human NCI-H1975 cells xenografted BALB/c nude mouse model assessed as decrease in USP8 level at 15 mg/kg/day, po measured after 5 days by Western blot analysis; format: functional, organism-based; settings: time 5.0 day
[4] = molecular target: T2, Ubiquitin carboxyl-terminal hydrolase 8 (Homo sapiens) (UniProt P40818); assay: Destabilization of N-terminal His-6 tagged USP8 (734 to 1110 residues) (unknown origin) expressed in Escherichia coli BL21 (DE3) cells assessed as change in melting temperature at 200 uM measured for 2 hrs in presence of dithiothreitol by SYPRO orange dye based thermal shift assay
T2 sequence (whole entry): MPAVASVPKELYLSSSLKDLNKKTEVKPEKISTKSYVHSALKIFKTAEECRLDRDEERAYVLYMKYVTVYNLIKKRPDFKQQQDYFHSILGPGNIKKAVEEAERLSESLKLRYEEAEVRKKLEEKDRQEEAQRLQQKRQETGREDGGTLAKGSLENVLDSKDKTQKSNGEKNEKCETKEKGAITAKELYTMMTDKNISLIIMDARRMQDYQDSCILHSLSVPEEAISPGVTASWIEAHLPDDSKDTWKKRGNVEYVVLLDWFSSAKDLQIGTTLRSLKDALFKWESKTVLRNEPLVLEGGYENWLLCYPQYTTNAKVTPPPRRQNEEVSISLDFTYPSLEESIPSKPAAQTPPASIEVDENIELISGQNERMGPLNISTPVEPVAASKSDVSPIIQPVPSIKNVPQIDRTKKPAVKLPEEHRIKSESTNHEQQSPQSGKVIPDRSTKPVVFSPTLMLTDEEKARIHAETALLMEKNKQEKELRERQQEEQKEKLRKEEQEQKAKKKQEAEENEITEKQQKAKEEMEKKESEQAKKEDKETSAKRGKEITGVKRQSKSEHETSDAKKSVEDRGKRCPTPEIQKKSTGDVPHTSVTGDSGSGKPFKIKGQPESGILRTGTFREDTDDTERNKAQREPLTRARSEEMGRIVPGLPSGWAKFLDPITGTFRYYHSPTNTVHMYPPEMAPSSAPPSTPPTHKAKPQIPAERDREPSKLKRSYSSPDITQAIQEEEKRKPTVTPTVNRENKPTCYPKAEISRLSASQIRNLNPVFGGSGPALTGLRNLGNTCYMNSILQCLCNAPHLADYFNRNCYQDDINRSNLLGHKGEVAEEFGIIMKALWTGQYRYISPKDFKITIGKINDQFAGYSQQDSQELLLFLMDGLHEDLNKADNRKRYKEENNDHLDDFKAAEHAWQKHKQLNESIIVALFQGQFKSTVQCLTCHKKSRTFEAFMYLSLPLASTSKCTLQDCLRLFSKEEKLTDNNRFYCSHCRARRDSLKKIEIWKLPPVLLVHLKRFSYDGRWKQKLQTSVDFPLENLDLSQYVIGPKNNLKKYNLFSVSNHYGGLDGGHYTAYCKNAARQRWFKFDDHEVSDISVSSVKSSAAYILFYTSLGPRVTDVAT

[5] = system: Mus musculus; assay: In vivo inhibition of OTUB1 in NCI-H1975 cells xenografted BALB/c nude mouse model assessed as decrease in UBE2N level at 15 mg/kg/day, po measured after 5 days by Western blot analysis; format: functional, organism-based; settings: time 5.0 day
[6] = system: NCI-H1975; assay: Antitumor activity against human NCI-H1975 cells xenografted in BALB/c nude mouse model assessed as reduction in tumor volume at 5 mg/kg, ip bid for 2 weeks; format: functional, organism-based
[7] = system: Mus musculus; assay: In vivo inhibition of OTUB1 in human NCI-H1975 cells xenografted BALB/c nude mouse model assessed as decrease in OTUB1 level at 15 mg/kg/day, po measured after 5 days by Western blot analysis; format: functional, organism-based; settings: time 5.0 day
[8] = system: NCI-H1975; assay: Antitumor activity against human NCI-H1975 cells xenografted in BALB/c nude mouse model assessed as reduction of total tumor weight at 5 mg/kg, ip bid for 2 weeks; format: functional, organism-based
[9] = molecular target: T2, Ubiquitin carboxyl-terminal hydrolase 8 (Homo sapiens); assay: Inhibition of USP8 in human NCI-H1975 cells assessed as reduction in protein level at 500 nM measured for 24 hrs by immunoblotting analysis; format: cell-based
[10] = system: Mus musculus; assay: In vivo inhibition of USP8 in NCI-H1975 cells xenografted BALB/c nude mouse model assessed as decrease in EGFR level at 15 mg/kg/day, po measured after 5 days by Western blot analysis; format: functional, organism-based; settings: time 5.0 day
[11] = system: NCI-H1975; assay: Antitumor activity against human NCI-H1975 cells xenografted in BALB/c nude mouse model assessed as reduction of tumor burden at 5 mg/kg, ip qd for 2 weeks; format: functional, organism-based
[12] = molecular target: T1, Ubiquitin thioesterase OTUB1; assay: Inhibition of OTUB1 in human NCI-H1975 cells assessed as reduction in protein level at 500 nM measured for 24 hrs by immunoblotting analysis; format: cell-based

t1/2 [1] | inhibition [2] | ΔTm [4] | inhibition [9] | inhibition [12] | SMILES | Activity [3] | Activity [5] | Activity [6] | Activity [7] | Activity [8] | Activity [10] | Activity [11]
51.6 min |  |  |  |  | CN1CC[C@@H](Oc2ccc(Cl)c(-c3nc4c(o3)C(=O)c3ccccc3C4=O)c2)C1 |  |  |  |  |  |  | 
 | 100% |  |  |  | O=C1c2ccccc2C(=O)c2oc(-c3cccnc3)nc21 |  |  |  |  |  |  | 
49.8 min |  | 2 °C | Active | Active | CN1CC[C@@H](Oc2ccc(F)c(-c3nc4c(o3)C(=O)c3ccccc3C4=O)c2Cl)C1 | Active | Active | Active | Active | Active | Active | Active
